What was measured:
Format in all cases: cell-based
[1] = test system: 786-0; assay: NCI screen, growth of human tumor cells: Renal Cancer 786-0; conditions: 786-0 (Renal Cancer), 10^−4 molar
In short: (§1)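 NCI screening: compound applied to tumor cell lines at a given molar concentration, growth measured as percent. Minimum 60 data points/compound; cancer type noted.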

[2] = test system: HOP-62; assay: NCI screen, growth of human tumor cells: Non-Small Cell Lung HOP-62
In short: as §1

[3] = test system: HS 578T; assay: NCI screen, growth of human tumor cells: Breast Cancer HS 578T; conditions: HS 578T (Breast Cancer), 10^−4 molar
In short: as §1

[4] = test system: RXF-393; assay: NCI screen, growth of human tumor cells: Renal Cancer RXF-393; conditions: RXF-393 (Renal Cancer), 10^−4 molar
In short: as §1

[5] = test system: SF-295; assay: NCI screen, growth of human tumor cells: CNS Cancer SF-295
In short: as §1

[6] = test system: OVCAR-3; assay: NCI screen, growth of human tumor cells: Ovarian Cancer OVCAR-3; conditions: OVCAR-3 (Ovarian Cancer), 10^−4 molar
In short: as §1

[7] = test system: NCI-H23; assay: NCI screen, growth of human tumor cells: Non-Small Cell Lung NCI-H23; conditions: NCI-H23 (Non-Small Cell Lung), 10^−4 molar
In short: as §1

[8] = test system: SR; assay: NCI screen, growth of human tumor cells: Leukemia SR; conditions: SR (Leukemia), 10^−4 molar
In short: as §1

[9] = test system: HCT-116; assay: NCI screen, growth of human tumor cells: Colon Cancer HCT-116; conditions: HCT-116 (Colon Cancer), 10^−4 molar
In short: as §1

[10] = test system: KM12; assay: NCI screen, growth of human tumor cells: Colon Cancer KM12; conditions: KM12 (Colon Cancer), 10^−4 molar
In short: as §1

[11] = test system: HL-60 (TB); assay: NCI screen, growth of human tumor cells: Leukemia HL-60 (TB); conditions: HL-60 (TB) (Leukemia), 10^−4 molar
Experimental: (§2) In the NCI screening process, each compound was tested and described by a minimum of 60 data points. The test data include, but are not limited to the type of cancer, the molar concentration used in the screen, and the percent growth of the cancer. In some cases, NMR and elemental analysis were used for structural assignment.

[12] = test system: UACC-62; assay: NCI screen, growth of human tumor cells: Melanoma UACC-62
In short: as §1

[13] = test system: NCI-H522; assay: NCI screen, growth of human tumor cells: Non-Small Cell Lung NCI-H522; conditions: NCI-H522 (Non-Small Cell Lung), 10^−4 molar
In short: as §1

[14] = test system: SF-268; assay: NCI screen, growth of human tumor cells: CNS Cancer SF-268
In short: as §1

[15] = test system: human cancer cells; assay: NCI screen summary over the cancers tested (negative growth of human cancer cells); conditions: 10^−4 M conc.; cancers with negative growth / cancers tested
Experimental: as §2
The derivatives in the tables are grouped using the same category as in the tables 1-6.

[16] = test system: ACHN; assay: NCI screen, growth of human tumor cells: Renal Cancer ACHN; conditions: ACHN (Renal Cancer), 10^−4 molar
In short: as §1

[17] = test system: MOLT-4; assay: NCI screen, growth of human tumor cells: Leukemia MOLT-4; conditions: MOLT-4 (Leukemia), 10^−4 molar
In short: as §1

[18] = test system: SF-539; assay: NCI screen, growth of human tumor cells: CNS Cancer SF-539
In short: as §1

[19] = test system: T-47D; assay: NCI screen, growth of human tumor cells: Breast Cancer T-47D; conditions: T-47D (Breast Cancer), 10^−4 molar
Experimental: as §2

[20] = test system: CCRF-CEM; assay: NCI screen, growth of human tumor cells: Leukemia CCRF-CEM; conditions: CCRF-CEM (Leukemia), 10^−4 molar
In short: as §1

[21] = test system: BT-549; assay: NCI screen, growth of human tumor cells: Breast Cancer BT-549
In short: as §1

[22] = test system: SK-OV-3; assay: NCI screen, growth of human tumor cells: Ovarian Cancer SK-OV-3; conditions: SK-OV-3 (Ovarian Cancer), 10^−4 molar
In short: as §1

[23] = test system: CAKI-1; assay: NCI screen, growth of human tumor cells: Renal Cancer CAKI-1; conditions: CAKI-1 (Renal Cancer), 10^−4 molar
In short: as §1

[24] = test system: SN12C; assay: NCI screen, growth of human tumor cells: Renal Cancer SN12C; conditions: SN12C (Renal Cancer), 10^−4 molar
In short: as §1

[25] = test system: MCF7/ADR-RES; assay: NCI screen, growth of human tumor cells: Breast Cancer MCF7/ADR-RES; conditions: MCF7/ADR-RES
In short: as §1

[26] = test system: SNB-75; assay: NCI screen, growth of human tumor cells: CNS Cancer SNB-75; conditions: SNB-75 (CNS Cancer), 10^−4 molar
In short: as §1

[27] = test system: LOXIMVI; assay: NCI screen, growth of human tumor cells: Melanoma LOXIMVI; conditions: LOXIMVI (Melanoma), 10^−4 molar
In short: as §1

[28] = test system: U-251; assay: NCI screen, growth of human tumor cells: CNS Cancer U-251; conditions: U-251 (CNS Cancer), 10^−4 molar
In short: as §1

[29] = test system: RPMI-8226; assay: NCI screen, growth of human tumor cells: Leukemia RPMI-8226; conditions: RPMI-8226 (Leukemia), 10^−4 molar
In short: as §1

[30] = test system: HCT-15; assay: NCI screen, growth of human tumor cells: Colon Cancer HCT-15; conditions: HCT-15 (Colon Cancer), 10^−4 molar
In short: as §1

[31] = test system: MCF 7; assay: NCI screen, growth of human tumor cells: Breast Cancer MCF 7; conditions: MCF 7 (Breast Cancer), 10^−4 molar
In short: as §1

[32] = test system: SK-MEL-2; assay: NCI screen, growth of human tumor cells: Melanoma SK-MEL-2; conditions: SK-MEL-2 (Melanoma), 10^−4 molar
In short: as §1

[33] = test system: OVCAR-4; assay: NCI screen, growth of human tumor cells: Ovarian Cancer OVCAR-4; conditions: OVCAR-4 (Ovarian Cancer), 10^−4 molar
In short: as §1

In the case of `N#CCCC1(CCC#N)S(=O)(=O)OCCOS1(=O)=O` [NSC 665941], the “percent of growth of human tumor cells” value [1] is reported as 6%, the “% Growth” value ([2]; HOP-62, 10^−4 molar) is reported as 16% and the “% Growth” value ([2]; HOP-62, 10^−5 molar) is reported as 46%. The “% Growth” value ([2]; HOP-62, 10^−6 molar) was 48%, the “% Growth” value ([2]; HOP-62, 10^−7 molar) was 25% and the “% Growth” value ([2]; HOP-62, 10^−8 molar) was 25%. The “percent of growth of human tumor cells” value [3] was −8%, the “percent of growth of human tumor cells” value [4] was 23% and the “% Growth” value ([5]; SF-295, 10^−4 molar) was 7%. For the same compound, the “% Growth” value ([5]; SF-295, 10^−5 molar) was 47%, the “percent of growth of human tumor cells” value [6] was 12% and the “percent of growth of human tumor cells” value [7] was 25%. The “percent of growth of human tumor cells” value [8] was 10%, the “percent of growth of human tumor cells” value [9] was 26% and the “percent of growth of human tumor cells” value [10] was 27%. For the same compound, the “percent of growth of human tumor cells” value [11] was −17%, the “% Growth” value ([12]; UACC-62, 10^−4 molar) was 9% and the “% Growth” value ([12]; UACC-62, 10^−5 molar) was 49%. The “percent of growth of human tumor cells” value [13] was 18%, the “% Growth” value ([14]; SF-268, 10^−4 molar) was 24% and the “% Growth” value ([14]; SF-268, 10^−5 molar) was 48%. For the same compound, the “Percentage of cancers showing negative growth cancers tested” value [15] was 10^−4 M conc. = 3/32 = 9%, the “percent of growth of human tumor cells” value [16] was 13% and the “percent of growth of human tumor cells” value [17] was 6%. For the same compound, the “% Growth” value ([18]; SF-539, 10^−4 molar) was −48%, the “% Growth” value ([18]; SF-539, 10^−5 molar) was 47% and the “percent of growth of human tumor cells” value [19] was 25%. For the same compound, the “percent of growth of human tumor cells” value [20] was 5%, the “percent of growth of human tumor cells” value ([21]; BT-549 (Breast Cancer), 10^−4 molar) was 18% and the “% Growth” value ([21]; BT-549, 10^−4 molar) was 18%. For the same compound, the “% Growth” value ([21]; BT-549, 10^−5 molar) was 33%, the “percent of growth of human tumor cells” value [22] was 28% and the “percent of growth of human tumor cells” value [23] was 28%. The “percent of growth of human tumor cells” value [24] was 15%, the “% Growth” value ([25]; 10^−4 molar) was 1% and the “% Growth” value ([25]; 10^−5 molar) was 63%. For the same compound, the “% Growth” value ([25]; 10^−6 molar) was 69%, the “% Growth” value ([25]; 10^−7 molar) was 68% and the “% Growth” value ([25]; 10^−8 molar) was 56%. For the same compound, the “percent of growth of human tumor cells” value [26] was 28%, the “percent of growth of human tumor cells” value [27] was 5% and the “percent of growth of human tumor cells” value [28] was 20%. The “percent of growth of human tumor cells” value [29] was 24%, the “percent of growth of human tumor cells” value [30] was 27% and the “percent of growth of human tumor cells” value [31] was 18%. For the same compound, the “percent of growth of human tumor cells” value [32] was 26% and the “percent of growth of human tumor cells” value [33] was 4%.

Source: patent US8124793B2, “Derivatives of ethylene methanedisulfonate as cancer chemotherapeutic agents” (priority 2007, dated 2012)
